Assay results from patent US20250034186A1, “ANTIVIRAL COMPOUNDS” (priority 2020, published 2025).

What was measured:
HRVc25 replicon = experiment: HRVc25 HeLa replicon EC50; format: cell-based; settings: Human rhinovirus sp., HRV25, H1-HeLa, 48 h, read-out: HRV25 Rep EC50
Procedure: First, HRV replicon RNA is prepared. 5 μg of DNA Template (HRVc15 or HRVc25) is linearized with 2 μL of MluI enzyme in NEB buffer-3 in a final volume of 25 μL for 3 hours at 37° C. Following incubation, linearized DNA is purified on a PCR purification column and the following in vitro transcription is performed using the following conditions: 10 μL of RiboMAX Express T7 2× buffer, 1-8 μL of linear DNA template (1 μg), 0-7 μL nuclease free water, 2 μL enzyme mix T7 express. The final volume of 20 μL is mixed and incubated at 37° C. for 30 min. Following incubation, 1 μL of RQ1 RNase free DNase is added and the mixture is incubated at 37° C. for 15 min. The resulting RNA is then purified with the MegaClear Kit (Gibco Life Technologies Cat #11835-030) and is eluted two times with 50 μL of elution buffer at 95° C. […] Replicon activity is then measured by a Renilla-Glo Luciferase Assay system. Prior to signal quantification, plates are removed from incubators and are allowed to equilibrate to 25° C. after 50 uL is removed from each well. […] Plates are then incubated for 20 min at 25° C. under gentle agitation and luciferase signal are determined with a 0.1 second detection setting using an EnVision luciferase quantification reader.

[1] = test system: Dengue 2, New Guinea strain (NGC); experiment: DENV-2 moDC EC50; format: cell-based; settings: Dengue virus, Dendritic cell; human monocyte-derived dendritic cells, 48 hours, qPCR
Procedure: Human monocyte-derived dendritic cells (moDCs) were derived from CD14+ monocytes (AllCells) cultured in Human Mo-DC Differentiation medium containing GM-CSF and IL-4 (Miltenyi Biotec). On day 7, moDCs were harvested by mechanical disruption, washed and suspended in serum-free RPMI. moDCs were infected with Vero-derived Dengue 2, New Guinea strain (NGC) at a MOI=0.1 for two hours in serum-free RPMI with gentle agitation at 37° C. Cells were washed and resuspended in 10% serum-containing RPMI (Gibco, supplemented with sodium pyruvate, NEAA, Penicillin-Streptomycin). 10^5 cells were plated in triplicate in 96-well plates with compounds dispensed at graded doses (Hewlett-Packard D300 Digital Dispenser). All wells were normalized to 0.25% DMSO. At 48 hours, cells were washed with 1×PBS and all supernatants removed. Total RNA was extracted using RNEasy 96 plates (Qiagen) and used to generate first-strand cDNA using XLT cDNA 5× Supermix (QuantaBio). cDNA was used as a template in a Taqman qPCR duplex reaction specific to DENV2 viral and GAPDH gene expression. EC50 values were determined using Prism Graphpad software, with normalization to a positive control and no compound negative control wells.

[2] = PBMC in-vitro intracellular triphosphate formation assay; format: in vitro ADME; settings: 2 μM, 2 hours incubation, compared to compound 2 and/or 6 (FIG. 2)
Procedure: In-vitro intracellular triphosphate formation was measured for the compound of Formula I and compounds 2 and 6 using the following protocol. Freshly-isolated PBMC's were derived from a healthy donor and were suspended to a concentration of 5 million cells/mL in culture medium ([…] containing L-glutamine) prior to the start of the experiment. 10 mL aliquots of PBMCs were transferred to 50 mL conical tubes with loosened caps and compounds were added to a final concentration of 2 μM. 1 mL aliquots were then transferred to the wells of a 24-well plate per sample. The PBMC-compound mixtures were incubated for 2 hours at 37° c./5% CO2 under gentle agitation. Following incubation, PBMCs were spun at 5000 RPM for 3 min and supernatants were aspirated without disturbing the cell pellet. For samples undergoing immediate analysis, samples were resuspended in pre-cooled 1× Tris-buffered saline and were transferred to 1.5 mL conical tubes containing 0.5 mL of nyosil M25. Samples/Oil aliquots were then spun for 1 min at 13,000 RPM. Following centrifugation, all media was aspirated from the tubes without disturbing the oil layer. Water was added on top of the oil layer and the spinning/aspiration process was repeated followed by an additional water wash. […]

C[C@H](N[P@](=O)(OC[C@@]1(C#N)O[C@@H](c2ccc3c(N)ncnn23)[C@H](O)[C@@H]1O)Oc1ccccc1)C(=O)OC1CCCCC1 [Formula I, cyclohexyl ((S)-(((2R,3S,4R,5S)-5-(4-aminopyrrolo[2,1-f][1,2,4]triazin-7-yl)-2-cyano-3,4-dihydroxytetrahydrofuran-2-yl)methoxy)(phenoxy)phosphoryl)-L-alaninate]
EC50 (HRVc25 replicon): 7 nM
EC50 [1]: > 6190 nM
in-vitro intracellular NTP formation in PBMCs [2]: lower
